Assay results reported in article PMC7673538 (PLoS Biology, 2020).
Like-named read-outs stand apart in the source and are kept apart here.

What was measured:
PV-1 = test: microbe, parasite or virus in culture; type: cell-based, poliovirus 1; details: Enterovirus C
HRV-A2 = test: microbe, parasite or virus in culture; type: cell-based, human rhinovirus; details: Human rhinovirus sp., HRVA2, HeLa R19, read-out: EC50 HRV-A2
in vitro [1] = details: human
CV-B3 [2] = test: microbe, parasite or virus in culture; type: cell-based, coxsackievirus B3; details: for EC50: Enterovirus B
EV-D68 = test: microbe, parasite or virus in culture; type: cell-based, enterovirus D68; details: Enterovirus D
in vitro [3] = details: human; remark: listed apart in the source
HRV-B14 = test: microbe, parasite or virus in culture; type: cell-based, human rhinovirus; details: Human rhinovirus sp.
EV-A71 = test: microbe, parasite or virus in culture; type: cell-based, enterovirus A71; details: Enterovirus A
CV-B3 [4] = test: microbe, parasite or virus in culture; type: cell-based, coxsackievirus B3; details: Enterovirus B, CVB3, BGM
CV-A24 = test: microbe, parasite or virus in culture; type: cell-based, coxsackievirus A24; details: Enterovirus C
in vitro [5] = details: monkey
CV-B3 [6] = test: microbe, parasite or virus in culture; type: cell-based, coxsackievirus B3; details: Enterovirus B
[7] = system: representative EVs and RVs; type: cell-based
[8] = CVB3, HeLa R19, read-out: CV-B3 EC50 Average
[9] = CVB3, HeLa R19, read-out: CV-B3 Exp 1 EC50
[10] = CVB3, HeLa R19, read-out: CV-B3 Exp2 EC50
[11] = CVB3, HeLa R19, read-out: Exp 1 EC50 HelaR19
[12] = CVB3, HeLa R19, read-out: Exp 2 EC50 HelaR19
[13] = EVD68, HeLa R19, read-out: EC50 EV-D68
[14] = EVD68, HeLa R19, read-out: EC50 Exp1
[15] = EVD68, HeLa R19, read-out: EC50 Exp2
[16] = HRVB14, HeLa R19, read-out: EC50 HRV-B14
[17] = EVA71, HeLa R19, read-out: EC50 EV-A71
[18] = EVA71, HeLa R19, read-out: EC50 Exp1
[19] = EVA71, HeLa R19, read-out: EC50 Exp2
[20] = CVA24, HeLa R19, read-out: EC50 Exp1
[21] = CVA24, HeLa R19, read-out: EC50 Exp2
[22] = CVB3, HAP1, read-out: EC50 Hap1 Average
[23] = CVB3, HAP1, read-out: Exp 1 EC50 Hap1
[24] = CVB3, HAP1, read-out: Exp 2 EC50 Hap1

## O=C(c1ccco1)N(Cc1ccccc1)c1ccccc1 [Compound 19a, N-Benzyl-N-phenylfuran-2-carboxamide]
PV-1; HeLa R19, read-out: EC50 Exp1
  EC50: 31.5 µM
PV-1; HeLa R19, read-out: EC50 Exp2
  EC50: 33.6 µM
PV-1; HeLa R19, read-out: EC50 PV-1
  EC50: 32.6 ± 1.08 µM
HeLa R19 cells
  cytotoxicity (in words): did not show any cytotoxicity
HRV-A2
  EC50: > 30 µM
In vitro [1]; CC50
  CC50: > 100 µM
In vitro [1]; CC50 Hap1 Average
  CC50: > 100 µM
In vitro [1]; Exp 1 CC50 Hap1
  CC50: > 100 µM
In vitro [1]; Exp 2 CC50 Hap1
  CC50: > 100 µM
CV-B3 [2]
  increase or decrease of antiviral activity against CV-B3: less than 3 fold
CV-B3 [2]; [8]
  EC50: 0.91 µM
CV-B3 [2]; [9]
  EC50: 0.88 µM
CV-B3 [2]; [10]
  EC50: 0.94 µM
CV-B3 [2]; CVB3, HeLa R19, read-out: EC50 HelaR19 Average
  EC50: 1.62 µM
CV-B3 [2]; [11]
  EC50: 1.25 µM
CV-B3 [2]; [12]
  EC50: 1.98 µM
EV-D68; [13]
  EC50: 1.34 ± 0.45 µM
EV-D68; [14]
  EC50: 1.79 µM
EV-D68; [15]
  EC50: 0.89 µM
In vitro [3]; CC50 Average
  CC50: > 30 µM
In vitro [3]; CC50 HelaR19 Average
  CC50: > 100 µM
In vitro [3]; Exp 1 CC50
  CC50: > 30 µM
In vitro [3]; Exp 1 CC50 HelaR19
  CC50: > 100 µM
In vitro [3]; Exp2 CC50
  CC50: > 30 µM
In vitro [3]; Exp 2 CC50 HelaR19
  CC50: > 100 µM
HRV-B14; [16]
  EC50: > 30 µM
EV-A71; [17]
  EC50: 3.5 ± 0.31 µM
EV-A71; [18]
  EC50: 3.19 µM
EV-A71; [19]
  EC50: 3.8 µM
CV-B3 [4]; read-out: EC50 BGM Average
  EC50: 1.84 µM
CV-B3 [4]; read-out: Exp 1 EC50 BGM
  EC50: 1.9 µM
CV-B3 [4]; read-out: Exp 2 EC50 BGM
  EC50: 1.77 µM
CV-A24; CVA24, HeLa R19, read-out: EC50 CV-A24
  EC50: 21.48 ± 0.03 µM
CV-A24; [20]
  EC50: 21.5 µM
CV-A24; [21]
  EC50: 21.4 µM
In vitro [5]; CC50
  CC50: > 100 µM
In vitro [5]; CC50 BGM Average
  CC50: > 100 µM
In vitro [5]; Exp 1 CC50 BGM
  CC50: > 100 µM
In vitro [5]; Exp 2 CC50 BGM
  CC50: > 100 µM
CV-B3 [6]; [22]
  EC50: 0.73 µM
CV-B3 [6]; [23]
  EC50: 0.48 µM
CV-B3 [6]; [24]
  EC50: 0.97 µM
[7]
  spectrum of antiviral activity (in words): anti-EV activity but not anti-RV activity

## Cc1ccc(CN(C(=O)c2ccco2)c2ccccc2)cc1 [Compound 19g, N-(4-Methylbenzyl)-N-phenylfuran-2-carboxamide]
PV-1; HeLa R19, read-out: EC50 Exp1
  EC50: 16.5 µM
PV-1; HeLa R19, read-out: EC50 Exp2
  EC50: 18.5 µM
PV-1; HeLa R19, read-out: EC50 PV-1
  EC50: 17.5 ± 1 µM
HeLa R19 cells
  cytotoxicity (in words): did not show any cytotoxicity
HRV-A2
  EC50: > 30 µM
In vitro [1]; CC50
  CC50: > 100 µM
In vitro [1]; CC50 Hap1 Average
  CC50: > 100 µM
In vitro [1]; Exp 1 CC50 Hap1
  CC50: > 100 µM
In vitro [1]; Exp 2 CC50 Hap1
  CC50: > 100 µM
CV-B3 [2]
  effect of the substitution on antiviral activity against CV-B3 (in words): only marginally affected antiviral activity
CV-B3 [2]; [8]
  EC50: 0.88 µM
CV-B3 [2]; [9]
  EC50: 0.86 µM
CV-B3 [2]; [10]
  EC50: 0.89 µM
CV-B3 [2]; [11]
  EC50: 1.02 µM
CV-B3 [2]; [12]
  EC50: 1.69 µM
EV-D68; EVD68, HeLa R19, read-out: EC50 Average
  EC50: 1.48 µM
EV-D68; [13]
  EC50: 1.49 ± 0.08 µM
EV-D68; [14]
  EC50: 1.56 µM
EV-D68; [15]
  EC50: 1.41 µM
In vitro [3]; CC50 Average
  CC50: > 30 µM
In vitro [3]; CC50 HelaR19 Average
  CC50: > 100 µM
In vitro [3]; Exp 1 CC50
  CC50: > 30 µM
In vitro [3]; Exp 1 CC50 HelaR19
  CC50: > 100 µM
In vitro [3]; Exp2 CC50
  CC50: > 30 µM
In vitro [3]; Exp 2 CC50 HelaR19
  CC50: > 100 µM
HRV-B14; HRVB14, HeLa R19, read-out: EC50 Average
  EC50: 12.6 µM
HRV-B14; HRVB14, HeLa R19, read-out: EC50 Exp1
  EC50: 13.6 µM
HRV-B14; HRVB14, HeLa R19, read-out: EC50 Exp2
  EC50: 11.5 µM
HRV-B14; [16]
  EC50: 12.5 ± 1.05 µM
EV-A71; [17]
  EC50: 0.6 ± 0.14 µM
EV-A71; [18]
  EC50: 0.46 µM
EV-A71; [19]
  EC50: 0.73 µM
CV-B3 [4]
  EC50: 1.7 ± 0.26 µM
CV-B3 [4]; read-out: EC50 BGM Average
  EC50: 1.69 µM
CV-B3 [4]; read-out: Exp 1 EC50 BGM
  EC50: 1.95 µM
CV-B3 [4]; read-out: Exp 2 EC50 BGM
  EC50: 1.44 µM
CV-A24; [20]
  EC50: 9.29 µM
CV-A24; [21]
  EC50: 11 µM
In vitro [5]; CC50
  CC50: > 100 µM
In vitro [5]; CC50 BGM Average
  CC50: > 100 µM
In vitro [5]; Exp 1 CC50 BGM
  CC50: > 100 µM
In vitro [5]; Exp 2 CC50 BGM
  CC50: > 100 µM
CV-B3 [6]; [22]
  EC50: 2.38 µM
CV-B3 [6]; [23]
  EC50: 2.08 µM
CV-B3 [6]; [24]
  EC50: 2.68 µM
[7]
  spectrum of antiviral activity (in words): anti-EV activity but not anti-RV activity
